Experimental data published in PMC10455244, “Alpha-Mangostin: A Potent Inhibitor of TRPV3 and Pro-Inflammatory Cytokine Secretion in Keratinocytes” (International Journal of Molecular Sciences, 2023).

Experiments:
[1] = biological target: T1, TRPV3 (Homo sapiens, UniProt Q8NET8); test: Whole-cell patch-clamp, carvacrol-evoked TRPV3 current in TRPV3-overexpressing HEK 293T cells; format: cell-based; set-up: host or cells: NHEK; conditions: 1000 µM carvacrol, −100 mV, at higher concentrations
T1 sequence (Q8NET8 1-790): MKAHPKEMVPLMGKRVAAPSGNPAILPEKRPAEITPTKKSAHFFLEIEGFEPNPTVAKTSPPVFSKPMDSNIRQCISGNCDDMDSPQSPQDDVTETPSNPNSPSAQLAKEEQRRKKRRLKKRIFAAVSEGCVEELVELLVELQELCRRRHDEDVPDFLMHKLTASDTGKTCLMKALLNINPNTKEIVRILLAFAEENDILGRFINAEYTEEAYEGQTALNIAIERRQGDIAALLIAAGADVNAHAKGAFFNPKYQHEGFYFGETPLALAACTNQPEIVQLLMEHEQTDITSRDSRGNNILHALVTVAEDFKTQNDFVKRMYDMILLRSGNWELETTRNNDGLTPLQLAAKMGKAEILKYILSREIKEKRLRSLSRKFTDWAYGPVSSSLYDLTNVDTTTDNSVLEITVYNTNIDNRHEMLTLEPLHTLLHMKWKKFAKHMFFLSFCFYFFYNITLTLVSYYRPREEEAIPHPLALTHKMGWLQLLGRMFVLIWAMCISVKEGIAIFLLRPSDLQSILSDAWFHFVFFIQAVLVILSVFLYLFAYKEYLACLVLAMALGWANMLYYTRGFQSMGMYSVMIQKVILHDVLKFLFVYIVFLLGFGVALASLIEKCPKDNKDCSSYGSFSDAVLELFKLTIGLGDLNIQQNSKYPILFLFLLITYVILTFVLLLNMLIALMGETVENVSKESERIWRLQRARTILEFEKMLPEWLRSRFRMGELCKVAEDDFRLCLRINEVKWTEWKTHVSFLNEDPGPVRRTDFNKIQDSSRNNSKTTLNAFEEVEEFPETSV

[2] = biological target: T1, TRPV3; test: Fura-2 calcium imaging, carvacrol-induced Ca2+ increase in NHEK; format: cell-based; set-up: host or cells: NHEK; conditions: 300 µM carvacrol, keratinocytes (NHEK), control 0.029 ± 0.003
Procedure: Since the TRPV3-mediated calcium influx is reported to contribute to proper skin function, we investigated whether alpha-mangostin inhibits the intracellular calcium increase induced by carvacrol in hTRPV3-overexpressing HEK 293T cells and keratinocytes. […] In hTRPV3-overexpressing HEK 293T cells, ∆(F340/F380) decreased by approximately 25% and 70% upon exposure to 0.3 µM and 3 µM alpha-mangostin, respectively (Figure 3A, 0.424 ± 0.032 vs. 0.316 ± 0.030 and 0.144 ± 0.006, respectively).
Figure 3 Alpha-mangostin (α-MG) inhibited TRPV3-mediated intracellular calcium increase. Cells were perfused with solutions containing 0.3 µM, 3 µM alpha-mangostin or 10 µM 74a before the addition of 300 µM carvacrol (red, green, and blue lines, respectively). […]
Fura-2 AM (Thermo Fisher Scientific) was utilized as a fluorescent indicator to measure calcium signal, as described previously. […] To measure the cytosolic Ca^2+ level, a sequential excitation of Fura-2 is performed at 340 nm and 380 nm; then, the emission signals resulting from each excitation wavelength are measured and the ratio of these signals is calculated. […] Samples were excited using a wavelength of 380 nm for 20 ms, followed by 340 nm for 100 ms, and fluorescence at 510 nm was recorded. Recorded data were then analyzed using NIS-Element AR Version 5.00.00 (Nikon Instruments, Melville, NY, USA). […]

With `COc1c(O)cc2oc3cc(O)c(CC=C(C)C)c(O)c3c(=O)c2c1CC=C(C)C` [Alpha-mangostin] the “Effect on TRPV3 current induced by carvacrol” value [1] was “suppressed”, the “Change in F340/F380” value ([2]; 0.3 µM) was 0.019 ± 0.002 and the “Change in F340/F380” value ([2]; 3 µM) was 0.010 ± 0.002.
